In ChEMBL document CHEMBL3044945, “Synthesis of 1,3,5-trisubstituted pyrazoline nucleus containing compounds and screening for antimicrobial activity” (2012):
Values after ≈ are worked out from the molar mass of the structure shown.

Assays:
Assay type in all cases: functional
Pseudomonas fluorescens [1] = experiment: Antibacterial activity against Pseudomonas fluorescens MTCC 2421 at 1250 ug/ml after 48 hr by cup-plate method; conditions: MTCC 2421, 48 h, read-out: DIZ
Micrococcus luteus [2] = experiment: Antibacterial activity against Micrococcus luteus MTCC 1538 at 500 ug/ml after 48 hr by cup-plate method; conditions: MTCC 1538, 48 h, read-out: DIZ
Staphylococcus aureus [3] = experiment: Antibacterial activity against Staphylococcus aureus MTCC 1430 at 100 ug/ml after 48 hr by cup-plate method; conditions: MTCC 1430, 48 h, read-out: DIZ
Pseudomonas fluorescens [4] = experiment: Antibacterial activity against Pseudomonas fluorescens MTCC 2421 at 1000 ug/ml after 48 hr by cup-plate method; conditions: MTCC 2421, 48 h, read-out: DIZ
Escherichia coli = experiment: Antibacterial activity against Escherichia coli MTCC 1573 at 250 ug/ml after 48 hr by cup-plate method; conditions: MTCC 1573, 48 h, read-out: DIZ
Micrococcus luteus [5] = experiment: Antibacterial activity against Micrococcus luteus MTCC 1538 at 100 ug/ml after 48 hr by cup-plate method; conditions: MTCC 1538, 48 h, read-out: DIZ
Pseudomonas aeruginosa = experiment: Antibacterial activity against Pseudomonas aeruginosa MTCC 424 at 100 ug/ml after 48 hr by cup-plate method; conditions: MTCC 424, 48 h, read-out: DIZ
Staphylococcus aureus [6] = experiment: Antibacterial activity against Staphylococcus aureus MTCC 1430 after 24 to 48 hr by tube dilution method
Staphylococcus aureus [7] = experiment: Antibacterial activity against Staphylococcus aureus MTCC 1430 at 500 ug/ml after 48 hr by cup-plate method; conditions: MTCC 1430, 48 h, read-out: DIZ
Bacillus subtilis = experiment: Antibacterial activity against Bacillus subtilis MTCC 441 after 24 to 48 hr by tube dilution method
Pseudomonas fluorescens [8] = experiment: Antibacterial activity against Pseudomonas fluorescens MTCC 2421 at 250 ug/ml after 48 hr by cup-plate method; conditions: MTCC 2421, 48 h, read-out: DIZ
Micrococcus luteus [9] = experiment: Antibacterial activity against Micrococcus luteus MTCC 1538 at 250 ug/ml after 48 hr by cup-plate method; conditions: MTCC 1538, 48 h, read-out: DIZ
Aspergillus niger = experiment: Antifungal activity against Aspergillus niger MTCC 2546 at 1250 ug/ml after 48 hr by cup-plate method; conditions: MTCC 2546, 48 h, read-out: DIZ
Penicillium chrysogenum [10] = experiment: Antifungal activity against Penicillium chrysogenum MTCC 161 at 1250 ug/ml after 48 hr by cup-plate method; conditions: MTCC 161, 48 h, read-out: DIZ
Penicillium chrysogenum [11] = experiment: Antifungal activity against Penicillium chrysogenum MTCC 161 at 250 ug/ml after 48 hr by cup-plate method; conditions: MTCC 161, 48 h, read-out: DIZ
Micrococcus luteus [12] = experiment: Antibacterial activity against Micrococcus luteus MTCC 1538 after 24 to 48 hr by tube dilution method
Pseudomonas fluorescens [13] = experiment: Antibacterial activity against Pseudomonas fluorescens MTCC 2421 at 500 ug/ml after 48 hr by cup-plate method; conditions: MTCC 2421, 48 h, read-out: DIZ

Structure (SMILES)	MIC (Staphylococcus aureus [6])	MIC (Bacillus subtilis)	MIC (Micrococcus luteus [12])	zone of inhibition at 1250 µg/mL (Pseudomonas fluorescens [1])	zone of inhibition at 500 µg/mL (Micrococcus luteus [2])	zone of inhibition at 100 µg/mL (Staphylococcus aureus [3])	zone of inhibition at 1000 µg/mL (Pseudomonas fluorescens [4])	zone of inhibition at 250 µg/mL (Escherichia coli)	zone of inhibition at 100 µg/mL (Micrococcus luteus [5])	zone of inhibition at 100 µg/mL (Pseudomonas aeruginosa)	zone of inhibition at 500 µg/mL (Staphylococcus aureus [7])	zone of inhibition at 250 µg/mL (Pseudomonas fluorescens [8])	zone of inhibition at 250 µg/mL (Micrococcus luteus [9])	zone of inhibition at 1250 µg/mL (Aspergillus niger)	zone of inhibition at 1250 µg/mL (Penicillium chrysogenum [10])	zone of inhibition at 250 µg/mL (Penicillium chrysogenum [11])	zone of inhibition at 500 µg/mL (Pseudomonas fluorescens [13])
O=[N+]([O-])c1ccc(C2CC(c3cccc4ccccc34)=NN2)cc1 (configuration not stated)	50 mg/L (≈ 158 µM)	30 mg/L (≈ 94.5 µM)	30 mg/L (≈ 94.5 µM)	17 mm	11 mm	9 mm	15 mm	10 mm	9 mm	9 mm	11 mm	9 mm	10 mm	18 mm	17 mm	9 mm	11 mm
NC(=S)N1N=C(c2cccc3ccccc23)CC1c1ccc([N+](=O)[O-])cc1 (configuration not stated)	150 mg/L (≈ 398 µM)	30 mg/L (≈ 79.7 µM)	150 mg/L (≈ 398 µM)	24 mm	11 mm		23 mm	9 mm		10 mm	10 mm	10 mm	9 mm	26 mm	23 mm	11 mm	18 mm

Further lines, with some results ahead:

MIC (Staphylococcus aureus [6])	MIC (Bacillus subtilis)	MIC (Micrococcus luteus [12])	Structure (SMILES)	zone of inhibition at 1250 µg/mL (Pseudomonas fluorescens [1])	zone of inhibition at 500 µg/mL (Micrococcus luteus [2])	zone of inhibition at 100 µg/mL (Staphylococcus aureus [3])	zone of inhibition at 1000 µg/mL (Pseudomonas fluorescens [4])	zone of inhibition at 250 µg/mL (Escherichia coli)	zone of inhibition at 100 µg/mL (Micrococcus luteus [5])	zone of inhibition at 100 µg/mL (Pseudomonas aeruginosa)	zone of inhibition at 500 µg/mL (Staphylococcus aureus [7])	zone of inhibition at 250 µg/mL (Pseudomonas fluorescens [8])	zone of inhibition at 250 µg/mL (Micrococcus luteus [9])	zone of inhibition at 1250 µg/mL (Aspergillus niger)	zone of inhibition at 1250 µg/mL (Penicillium chrysogenum [10])	zone of inhibition at 250 µg/mL (Penicillium chrysogenum [11])	zone of inhibition at 500 µg/mL (Pseudomonas fluorescens [13])
150 mg/L (≈ 381 µM)	50 mg/L (≈ 127 µM)	200 mg/L (≈ 508 µM)	O=[N+]([O-])c1ccc(C2CC(c3cccc4ccccc34)=NN2c2ccccc2)cc1 (configuration not stated)	19 mm	9 mm		16 mm	10 mm		9 mm	11 mm	9 mm	8 mm	23 mm	18 mm	12 mm	10 mm
200 mg/L (≈ 456 µM)	50 mg/L (≈ 114 µM)	150 mg/L (≈ 342 µM)	O=[N+]([O-])c1ccc(C2CC(c3cccc4ccccc34)=NN2c2ccc([N+](=O)[O-])cc2)cc1 (configuration not stated)	21 mm	11 mm		18 mm	11 mm		9 mm	10 mm	10 mm	9 mm	25 mm	17 mm	10 mm	11 mm
50 mg/L (≈ 114 µM)	19 mg/L (≈ 43.3 µM)	30 mg/L (≈ 68.4 µM)	O=[N+]([O-])c1ccc(C2CC(c3cccc4ccccc34)=NN2c2ccccc2[N+](=O)[O-])cc1 (configuration not stated)	24 mm	9 mm		21 mm	10 mm		13 mm	10 mm	11 mm	8 mm	25 mm	26 mm	14 mm	13 mm
